Measured values: article PMC10831071, “Reaction hijacking inhibition of Plasmodium falciparum asparagine tRNA synthetase” (Nature Communications, 2024)
“And” between values parts separate entries of the source, which are not always exact repeats. Identical values can stand only once. Like-named read-outs stand apart in the source and are kept apart here.

Experiments:
[1] = system: P. falciparum Dd2-B2 clone; test: microbe, parasite or virus in culture; assay type: cell-based, Plasmodium falciparum
Source text: Wells were monitored daily by smear during the first 7 days to ensure parasite clearance, during which media was changed daily. […] Whole-genome sequencing analysis employed MiSeq data from libraries of 2 × 300 bp paired end reads.

[2] = system: DSM265-selected recrudescent Dd2-B2 cultures (G7, F3); test: Sensitivity of DSM265-selected bulk recrudescent cultures; assay type: cell-based, Plasmodium falciparum; details: for IC50: Plasmodium falciparum
P. falciparum (3D7) = test: Activity against P. falciparum 3D7 cultures, 72 h (PfLDH growth inhibition / flow cytometry); assay type: cell-based, Plasmodium falciparum
Procedure: Antimalarial activity against P. falciparum 3D7 was tested by TCGLS, Kolkata, India, using the lactate dehydrogenase (PfLDH) growth inhibition assay. […] Plates were shaken to ensure mixing and were placed in the dark at 21 °C for 20 min. […] P. falciparum strain (3D7) was obtained from BEI Resources.
Viability was assessed in the second cycle by flow cytometry, following labeling with 2 μM Syto-61 (Thermo Fisher Scientific)[48],[49]. Viability represents the parasitemia normalized to untreated and “kill” controls that were treated with 2 μM dihydroartemisinin (DHA; Sigma-Aldrich) for 48–72 h. For drug pulse assays, tightly synchronized Cam3.II-rev[50] parasites (1–1.5% parasitemia, 0.2% final hematocrit) were added to the plates and incubated for 6 h. Drugs were removed and the parasitemia assessed in the trophozoite stage of the next cycle.

PfAsnRS = PfAsnRS (Plasmodium falciparum, UniProt O96198); test: biochemical; details: for ATP consumption: PfAsnRS, normalised to 1 (Fig 3C)
Chain of PfAsnRS (O96198 entry or part of it): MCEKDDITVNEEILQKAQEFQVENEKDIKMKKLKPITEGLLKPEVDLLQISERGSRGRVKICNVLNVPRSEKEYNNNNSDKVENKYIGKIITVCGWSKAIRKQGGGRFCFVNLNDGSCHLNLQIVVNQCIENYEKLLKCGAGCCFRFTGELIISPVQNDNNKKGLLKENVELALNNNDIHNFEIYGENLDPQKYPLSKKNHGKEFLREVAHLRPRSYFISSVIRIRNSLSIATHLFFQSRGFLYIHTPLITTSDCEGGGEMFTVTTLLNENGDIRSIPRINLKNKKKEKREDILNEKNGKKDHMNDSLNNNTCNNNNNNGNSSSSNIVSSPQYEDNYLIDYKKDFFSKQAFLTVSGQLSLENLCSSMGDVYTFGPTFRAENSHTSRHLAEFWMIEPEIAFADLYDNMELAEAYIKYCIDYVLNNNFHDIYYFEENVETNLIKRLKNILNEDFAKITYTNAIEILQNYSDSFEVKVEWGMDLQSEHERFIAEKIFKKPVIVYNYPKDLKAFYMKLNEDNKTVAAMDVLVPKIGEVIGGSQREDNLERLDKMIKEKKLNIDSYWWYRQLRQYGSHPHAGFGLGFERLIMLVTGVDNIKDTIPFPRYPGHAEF

HsAsnRS = target: T1, HsAsnRS (Homo sapiens, UniProt O43776); test: ATP consumption assay (Kinase-Glo), HsAsnRS; assay type: biochemical; details: for ATP consumption: HsAsnRS, normalised to 1 (Fig 3C)
T1 construct: HsAsnRS (residues M1–P548) and CDHsAsnRS (residues A98–P548); His6 (N, cleaved yes); made in house; host or cells: E. coli BL21 (DE3), pET11a
T1 sequence (O43776 1-548): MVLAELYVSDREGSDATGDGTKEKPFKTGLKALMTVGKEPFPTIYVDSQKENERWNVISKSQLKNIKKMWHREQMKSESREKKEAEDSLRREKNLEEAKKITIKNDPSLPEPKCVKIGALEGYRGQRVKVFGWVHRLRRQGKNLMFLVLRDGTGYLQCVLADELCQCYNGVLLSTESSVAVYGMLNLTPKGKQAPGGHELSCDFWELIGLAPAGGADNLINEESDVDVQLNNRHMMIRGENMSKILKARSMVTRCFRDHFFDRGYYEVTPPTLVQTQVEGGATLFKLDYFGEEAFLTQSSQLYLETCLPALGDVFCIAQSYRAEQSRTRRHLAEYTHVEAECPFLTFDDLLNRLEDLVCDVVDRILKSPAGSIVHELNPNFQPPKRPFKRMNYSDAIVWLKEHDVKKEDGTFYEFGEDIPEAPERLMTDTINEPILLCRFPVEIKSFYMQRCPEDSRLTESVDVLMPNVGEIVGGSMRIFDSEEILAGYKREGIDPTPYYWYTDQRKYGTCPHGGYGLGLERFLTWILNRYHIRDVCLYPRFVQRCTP

[3] = Plasmodium falciparum, 3D7, 72 h, read-out: Pf3D7 IC50(72 h), 72 h, mean ± SD or duplicate values
[4] = Plasmodium falciparum, 3D7, read-out: activity against 3D7 cultures, value of earlier manuscript version quoted by reviewer, peer review file
[5] = read-out: Pf3D7 IC50 (72h), individual biological repeats (source data of Table 1)
[6] = Plasmodium falciparum, 3D7, 72 h, read-out: Pf3D7 IC50 (72h), individual biological repeats (source data of Table 1)

Cc1cc(Nc2ccc(S(F)(F)(F)(F)F)cc2)n2nc(C(C)(F)F)nc2n1 [DSM265]
IC50 ([1]; Plasmodium falciparum, DD2, read-out: Mean IC50 + SEM (N)): 0.0226 µM | Minimum Inoculum for Resistance (MIR) ([1]; reference selection at 5 × IC50 (58 nM), 2 × 10^5 parasites per well, 96 wells): 1.4 × 10^6 parasites | recrudescent wells ([1]; reference selection at 5 × IC50 (58 nM), 96-well plate): 14 and 14/96 | Fold Shift ([2]; DSM265_F3 vs Dd2-B2 parent): 2.5 | Fold Shift ([2]; DSM265_G7 vs Dd2-B2 parent): 3.1 | IC50 ([2]; read-out: Mean IC50 + SEM (N), recrudescent culture DSM265_F3): 0.0566 µM | IC50 ([2]; read-out: Mean IC50 + SEM (N), recrudescent culture DSM265_G7): 0.071 µM

Nc1ncnc2cc(-c3cccc(OS(N)(=O)=O)c3)sc12 [OSM-LO-80]
IC50 (P. falciparum (3D7); [3]): 5.1 ± 3.2 µM | IC50 (P. falciparum (3D7); [4]): 2.1 µM | IC50 (P. falciparum (3D7); [5]): 1.72 µM and 1.7 µM and 8 µM and 8.04 µM and 8.28 µM and 7.95 µM and 2.49 µM and 2.41 µM | IC50 (PfAsnRS): > 100 µM | ATP consumption (PfAsnRS; 0.1 μM OSM-LO-80, 0.1 µM): 0.9991 | ATP consumption (PfAsnRS; 1 μM OSM-LO-80, 1 µM): 0.918 and 0.9991 | ATP consumption (PfAsnRS; 3 μM OSM-LO-80, 3 µM): 0.8254 and 0.8439 | ATP consumption (PfAsnRS; 10 μM OSM-LO-80, 10 µM): 0.7121 and 0.7363 | ATP consumption (PfAsnRS; 30 μM OSM-LO-80, 30 µM): 0.597 and 0.5984 | ATP consumption (PfAsnRS; 100 μM OSM-LO-80, 100 µM): 0.5737 and 0.5517 | ATP consumption (HsAsnRS; 0.1 μM OSM-LO-80): 0.9993 and 0.9657 and 0.9905 | IC50 (HsAsnRS; 0.2 μM HsAsnRS, E. coli tRNA present, 37 °C, 1 h (Fig. 3C, D)): > 100 µM | ATP consumption (HsAsnRS; 1 μM OSM-LO-80): 1 and 0.9892 and 0.9767 | ATP consumption (HsAsnRS; 3 μM OSM-LO-80): 0.9847 and 1 and 0.9888 | ATP consumption (HsAsnRS; 10 μM OSM-LO-80): 1.009 and 0.9926 and 0.9928 | ATP consumption (HsAsnRS; 30 μM OSM-LO-80): 0.9786 and 0.9717 and 1 | ATP consumption (HsAsnRS; 100 μM OSM-LO-80): 0.9628 and 0.9785 and 0.9921

Nc1ncnc2cc(-c3cccc(COS(N)(=O)=O)c3)sc12 [OSM-LO-81]
IC50 (P. falciparum (3D7); [3]): 0.93 ± 0.24 µM | IC50 (P. falciparum (3D7); [6]): 1.1 µM | IC50 (P. falciparum (3D7); [4]): 0.9 µM | IC50 (P. falciparum (3D7); [5]): 1.33 µM and 0.74 µM and 0.761 µM and 0.909 µM and 0.753 µM

NS(=O)(=O)c1cccc(-c2ccc3c(=O)[nH]cnc3c2)c1 [OSM-LO-87]
antimalarial potency (in words) (P. falciparum (3D7); 3D7 cultures): no antimalarial potency | IC50 (P. falciparum (3D7); [3]): > 25 µM | IC50 (P. falciparum (3D7); [6]): > 25 µM | IC50 (P. falciparum (3D7); [5]): > 25 µM

NS(=O)(=O)c1cccc(-c2cc3nc[nH]c(=O)c3s2)c1 [OSM-LO-88]
IC50 (P. falciparum (3D7); [3]): 18.7 ± 1.8 µM | IC50 (P. falciparum (3D7); [6]): 19.2 µM | IC50 (P. falciparum (3D7); [5]): 21.9 µM and 18.6 µM and 17.5 µM and 16.5 µM

NS(=O)(=O)c1cccc(-c2cc3ncnc(N4CCN(Cc5ccc(F)cc5)CC4)c3s2)c1 [OSM-S-137]
IC50 (P. falciparum (3D7); [3]): 4.4 ± 3 µM | IC50 (P. falciparum (3D7); [5]): 2.65 µM and 1.2 µM and 6.07 µM and 7.69 µM

CNS(=O)(=O)c1cccc(-c2cc3ncnc(N)c3s2)c1 [OSM-S-488]
IC50 (P. falciparum (3D7); [6]): 12.7 µM | IC50 (P. falciparum (3D7); [5]): 13.8 µM
